Our source for the DC50 and Emax values is US20260014147A1, “STAT6 DEGRADERS” (Gilead Sciences, Inc., priority 2024, published 2026).

The target in the experiment is T1, STAT6 (endogenous, HiBiT-tagged) in HeLa LgBiT clone 4.14 cells (Homo sapiens, UniProt P42226).
T1 construct: These cells express endogenous STAT6; host or cells: HeLa LgBiT clone 4.14
T1 sequence (P42226 1-847): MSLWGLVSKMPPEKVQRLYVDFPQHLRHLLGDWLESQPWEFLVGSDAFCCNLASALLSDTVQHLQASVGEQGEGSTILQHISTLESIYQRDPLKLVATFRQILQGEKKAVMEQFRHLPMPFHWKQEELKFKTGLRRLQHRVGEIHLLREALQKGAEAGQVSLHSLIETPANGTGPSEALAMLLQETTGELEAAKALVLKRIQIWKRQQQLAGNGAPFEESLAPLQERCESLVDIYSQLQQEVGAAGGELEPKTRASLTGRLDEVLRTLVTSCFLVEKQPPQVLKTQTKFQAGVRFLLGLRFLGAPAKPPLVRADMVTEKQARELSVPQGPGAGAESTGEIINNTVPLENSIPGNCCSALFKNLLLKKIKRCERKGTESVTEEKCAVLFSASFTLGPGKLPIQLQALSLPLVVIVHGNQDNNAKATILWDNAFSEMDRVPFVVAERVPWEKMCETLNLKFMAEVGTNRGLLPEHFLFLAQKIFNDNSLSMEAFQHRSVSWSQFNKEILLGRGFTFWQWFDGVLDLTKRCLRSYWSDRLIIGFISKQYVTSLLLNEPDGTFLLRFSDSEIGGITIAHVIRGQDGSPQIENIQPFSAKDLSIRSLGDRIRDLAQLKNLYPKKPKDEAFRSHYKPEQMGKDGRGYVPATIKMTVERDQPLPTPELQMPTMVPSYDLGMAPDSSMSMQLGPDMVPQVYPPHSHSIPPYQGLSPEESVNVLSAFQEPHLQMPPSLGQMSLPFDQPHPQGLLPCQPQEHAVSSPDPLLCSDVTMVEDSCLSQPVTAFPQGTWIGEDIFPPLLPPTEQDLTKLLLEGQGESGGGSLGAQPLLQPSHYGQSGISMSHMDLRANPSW
The experiment in a line: STAT6 Degrader Assay (HiBiT based, HeLa LgBiT clone 4.14 cells, luminescence, DC50). The experiment is classed as cell-based. As to conditions: geometric mean; for DC50: DC50 provided for test compounds with >80% Emax, read-out: STAT6 degradation DC50; for Emax: Emax provided for test compounds with <80% Emax (and 2c15), read-out: STAT6 degradation Emax. On the procedure: This was a HiBit based assay. A HeLa cell line stably transfected with a small protein, LgBit (Large Bit) was obtained from Promega. These cells express endogenous STAT6. A small 11 amino acid gene sequence (HiBiT) was inserted in the STAT6 gene using CRISPR technology. Once STAT6 protein is expressed in the cells, the HiBiT sequence will bind the LgBit in the cells resulting in a functional NanoBiT protein, giving a luminescent tag to STAT6. Single cell clones were prepared and the clone 4.14 was selected for the assay based on that clone showing high luminescence, high STAT6 phosphorylation upon stimulation with IL-4, and inhibition of luminescence when cells were treated with STAT6 siRNA. HeLa LgBiT clone 4.14 cells were suspended in DMEM with 10% FCS, 1% Pen/Strep, Na-pyrovate and Hygromycin B, at a concentration of […]. 5000 cells were added pr well of a 384 well plate and 20 nL of compound was added by Echo® liquid handler. NN6394A (terfenadine, a toxic compound) was added to control wells at 50 µM concentration to establish the assay window. In these wells the cells are dead which equals 100% degradation of STAT6. After 4-24 h of incubation at 37° C. under 5% CO2/95% air, […] substrate (Nano-GLO®) was added to the wells and the plates were centrifuged and incubated for 0.5 h. The luminescence in the wells as a measure of non-degraded STAT6 was measured in a plate reader (BMG Pherastar FSX). The dose-response curves for Examples 2a2, 2t1, 2 h3, and 2r1 are shown below (where percent degradation is plotted vs. test compound concentration in M on a log-scale).
A general note: The HiBiT peptide binds its large partner to form an active luciferase.

Bounds are passed on as bounds.

For the molecule `CNc1ccc(-c2ccnc3c2cc([C@H](C)N2CCC(c4ccc(C(=O)N5CCn6nc(CN7CCC(c8ccc(N[C@@H]9CCC(=O)NC9=O)cc8F)CC7)cc6C5)cc4)CC2)n3C)cn1` (single isomer, unassigned) [Example 2c43], the DC50 was determined as 1.6 nM.

For `COC(C)c1nc2cc(-c3ccnc4c3cc([C@H](C)N3CCC(c5ccc(C(=O)N6CCC(CN7CCN(c8ccc(NC9CCC(=O)NC9=O)cc8F)CC7)CC6)cc5)CC3)n4C)ccc2[nH]1` (stereo in doubt) [Example 2c21, 3-((3-fluoro-4-(4-((1-(4-(1-((S)-1-(4-(2-((R)-1-methoxyethyl)-1H-benzo[d]imidazol-5-yl)-1-methyl-1H-pyrrolo[2,3-b]pyridin-2-yl)ethyl)piperidin-4-yl)benzoyl)piperidin-4-yl)methyl)piperazin-1-yl)phenyl)amino)piperidine-2,6-dione], the DC50 is 4.4 nM.

As for `CNc1ccc(-c2ccnc3c2cc([C@H](C)N2CCC(c4ccc(C(=O)N5CCC(CN6CCN(c7ncc(NC8CCC(=O)NC8=O)cc7F)CC6)CC5)cc4)CC2)n3C)cn1` (stereo partly drawn) [Example 2n13, 3-((5-fluoro-6-(4-((1-(4-(1-((S)-1-(1-methyl-4-(6-(methylamino)pyridin-3-yl)-1H-pyrrolo[2,3-b]pyridin-2-yl)ethyl)piperidin-4-yl)benzoyl)piperidin-4-yl)methyl)-piperazin-1-yl)pyridin-3-yl)amino)piperidine-2,6-dione], the DC50 amounted to 30 nM and the Emax was 79.3%.

On to `Cn1c(CN2CCC(c3ccc(-c4nnc5ccc(N6CCC(CN7CCN(c8ccc(NC9CCC(=O)NC9=O)cc8F)CC7)CC6)nn45)cc3)CC2)cc2c(-c3ccc(N)nc3)ccnc21` (stereo not drawn) [Example 2r1, 3-((4-(4-((1-(3-(4-(1-((4-(6-aminopyridin-3-yl)-1-methyl-1H-pyrrolo[2,3-b]pyridin-2-yl)methyl)-piperidin-4-yl)phenyl)-[1,2,4]triazolo[4,3-b]pyridazin-6-yl)piperidin-4-yl)methyl)piperazin-1-yl)-3-fluorophenyl)-amino)piperidine-2,6-dione], for which the DC50 came to 0.35 nM.

In the case of `CNc1ccc(-c2ccnc3c2cc([C@H](C)N2CCC(c4ccc(C(=O)N5CCn6nc(CN7CCC(c8ccc(NC9CCC(=O)NC9=O)cc8F)CC7)cc6C5)cc4)CC2)n3C)cn1` (mixture of isomers) [Example 2c41, 3-((3-fluoro-4-(1-((5-(4-(1-((S)-1-(1-methyl-4-(6-(methylamino)pyridin-3-yl)-1H-pyrrolo[2,3-b]pyridin-2-yl)ethyl)piperidin-4-yl)benzoyl)-4,5,6,7-tetrahydropyrazolo[1,5-a]pyrazin-2-yl)methyl)piperidin-4-yl)phenyl)amino)piperidine-2,6-dione], the DC50 is 3.3 nM.

As to `COCc1nc2cc(-c3ccnc4c3cc(CN3CCC(c5ccc(C(=O)N6CCC(CN7CCN(Cc8ccc(-n9cc(N%10CCC(=O)NC%10=O)nn9)cc8)CC7)CC6)cc5)CC3)n4C)ccc2[nH]1` [Example 2c56, 1-(1-(4-((4-((1-(4-(1-((4-(2-(methoxymethyl)-1H-benzo[d]imidazol-5-yl)-1-methyl-1H-pyrrolo[2,3-b]pyridin-2-yl)methyl)piperidin-4-yl)benzoyl)piperidin-4-yl)methyl)piperazin-1-yl)methyl)-phenyl)-1H-1,2,3-triazol-4-yl) dihydropyrimidine-2,4 (1H,3H)-dione], the Emax is below 20%.

For `COCc1nc2cc(-c3ccnc4c3cc(CN3CCC(c5ccc(C(=O)N6CCC(CN7CCN(c8ccc(NC9CCC(=O)NC9=O)cc8F)C[C@H]7C)CC6)cc5)CC3)n4C)ccc2[nH]1` (stereo partly drawn) [Example 2f7, 3-((3-fluoro-4-((R)-4-((1-(4-(1-((4-(2-(methoxymethyl)-1H-benzo[d]imidazol-5-yl)-1-methyl-1H-pyrrolo[2,3-b]pyridin-2-yl)methyl)piperidin-4-yl)benzoyl)piperidin-4-yl)methyl)-3-methylpiperazin-1-yl)phenyl)-amino)piperidine-2,6-dione], the DC50 was 6.6 nM.

`Cn1c(CN2CCC(c3ccc(C(=O)N4CCC(CN5CCN(c6ccc(NC7CCC(=O)NC7=O)cc6F)CC5)CC4)cc3)CC2)cc2c(-c3ccc4[nH]ncc4c3)ccnc21` (single isomer, unassigned) [Example 2c6]: the DC50 stood at 22.5 nM.

`C[C@H]1CN(c2ccc(NC3CCC(=O)NC3=O)cc2F)CCN1CC1CCN(C(=O)c2ccc(C3CCN(Cc4cc5c(-c6ccc7[nH]ncc7c6)ccnc5n4C)CC3)cc2)CC1` (stereo partly drawn) [Example 2f5, 3-((4-((S)-4-((1-(4-(1-((4-(1H-indazol-5-yl)-1-methyl-1H-pyrrolo[2,3-b]pyridin-2-yl)methyl)piperidin-4-yl)benzoyl)piperidin-4-yl)methyl)-3-methylpiperazin-1-yl)-3-fluorophenyl)amino)piperidine-2,6-dione]: the Emax lay within 50 to 60%.

Regarding `C[C@@H](c1cc2c(-c3ccc4[nH]ncc4c3)ccnc2n1C)N1CCC(c2ccc(C(=O)N3CCC(CN4CCN(c5ncc(NC6CCC(=O)NC6=O)cc5F)CC4)CC3)cc2)CC1` (stereo partly drawn) [Example 2n8, 3-((6-(4-((1-(4-(1-((S)-1-(4-(1H-indazol-5-yl)-1-methyl-1H-pyrrolo[2,3-b]pyridin-2-yl)ethyl)-piperidin-4-yl)benzoyl)piperidin-4-yl)methyl)piperazin-1-yl)-5-fluoropyridin-3-yl)amino)piperidine-2,6-dione], the DC50 is 6.5 nM.

As for `COCc1nc2cc(-c3ccnc4c3cc(CN3CCC(c5ccc(C(=O)N6CCC(CN7CCN(c8ccc(NC9CCC(=O)NC9=O)c(F)n8)CC7)CC6)cc5)CC3)n4C)ccc2[nH]1` (stereo not drawn) [Example 2n3, 3-((2-fluoro-6-(4-((1-(4-(1-((4-(2-(methoxymethyl)-1H-benzo[d]imidazol-5-yl)-1-methyl-1H-pyrrolo[2,3-b]pyridin-2-yl)methyl)piperidin-4-yl)benzoyl)piperidin-4-yl)methyl)piperazin-1-yl)pyridin-3-yl)amino)piperidine-2,6-dione], the DC50 was 19.8 nM.

On to `COCc1nc2cc(-c3ccnc4c3cc(CN3CCC(c5ccc(C(=O)N6CCC(CN7CCN(c8ccc(NC9CCC(=O)NC9=O)cc8F)C[C@@H]7C)CC6)cc5)CC3)n4C)ccc2[nH]1` (stereo partly drawn) [Example 2f4, 3-((3-fluoro-4-((S)-4-((1-(4-(1-((4-(2-(methoxymethyl)-1H-benzo[d]imidazol-5-yl)-1-methyl-1H-pyrrolo[2,3-b]pyridin-2-yl)methyl)piperidin-4-yl)benzoyl)piperidin-4-yl)methyl)-3-methylpiperazin-1-yl)phenyl)-amino)piperidine-2,6-dione], for which the Emax was in the range of 50 to 60%.

On to `COCc1nc2cc(-c3ccnc4c3cc(CN3CCC(c5ccc(C(=O)N6CCC(CN7CCN(c8ccc(NC9CCC(=O)NC9=O)cc8F)CC7)CC6)cc5)CC3)n4C)ccc2[nH]1` (stereo not drawn) [Example 2c4, 3-((3-fluoro-4-(4-((1-(4-(1-((4-(2-(methoxymethyl)-1H-benzo[d]imidazol-5-yl)-1-methyl-1H-pyrrolo[2,3-b]pyridin-2-yl)methyl)piperidin-4-yl)benzoyl)piperidin-4-yl)methyl)piperazin-1-yl)phenyl)-amino)piperidine-2,6-dione], for which the Emax lay within 70 to 80%.

With `Cn1c(CN2CCC(c3ccc(C(=O)N4CCC(CN5CCC(n6ncc7c(NC8CCC(=O)NC8=O)cccc76)CC5)CC4)cc3)CC2)cc2c(-c3ccc4[nH]ncc4c3)ccnc21` (stereo not drawn) [Example 2g1, 3-((1-(1-((1-(4-(1-((4-(1H-indazol-5-yl)-1-methyl-1H-pyrrolo[2,3-b]pyridin-2-yl)methyl)-piperidin-4-yl)benzoyl)piperidin-4-yl)methyl)piperidin-4-yl)-1H-indazol-4-yl)amino)piperidine-2,6-dione], the Emax is below 20%.

What is called DC50 is the concentration giving 50% degradation. In general, Emax refers to the greatest response seen or fitted, relative to the assay's reference.
